This is an account of results in patent US12304917B1, “Pleuromutilin derivative containing a thiazolo[5,4-c]pyridine side chain, and a preparation method and application thereof” (SHAANXI UNIVERSITY OF SCIENCE AND TECHNOLOGY, priority 2024, dated 2025).

Structures are written as SMILES. In brackets after ≈: the same amount, converted by molar mass.

Data set [1] in a line: physchem. To be noted: thermodynamic from solid.
Data set [2] has as its system Methicillin-resistant S. aureus ATCC 33591. The experiment in a line: MIC by broth microdilution. To be noted: Staphylococcus aureus, ATCC33591|MRSA, 24 h, read-out: Minimum inhibitory concentration MRSA^b.
Data set [3] concerns Methicillin-resistant S. aureus ATCC 43300. The data set is described as follows: MIC by broth microdilution. As to conditions: Staphylococcus aureus, ATCC43300|MRSA, 24 h, read-out: Minimum inhibitory concentration MRSA^c.
Data set [4] relates to S. aureus ATCC 29213. The data set is described as follows: MIC by broth microdilution. To be noted: Staphylococcus aureus, ATCC29213, 24 h, read-out: Minimum inhibitory concentration S.a.^d. In general terms: Dilution methods test growth across graded concentrations, often in twofold steps.
The test system of data set [5] is Methicillin-resistant S. epidermidis ATCC 51625. The experiment in a line: MIC by broth microdilution. To be noted: Staphylococcus epidermidis, ATCC51625|MRSE, 24 h, read-out: Minimum inhibitory concentration MRSE^e.
Data set [6] deals with A. baumannii ATCC 19606. The experiment in a line: MIC by broth microdilution. To be noted: Acinetobacter baumannii, ATCC19606, 24 h, read-out: Minimum inhibitory concentration A.b.^f.
For data set [7], the system named is S. enterica ATCC14028. The experiment in a line: MIC by broth microdilution. As to conditions: Salmonella enterica, ATCC14028, 24 h, read-out: Minimum inhibitory concentration S.e.^g.
The subject of data set [8] is E. coli ATCC 25922. The experiment in a line: MIC by broth microdilution. As to conditions: Escherichia coli, ATCC25922, 24 h, read-out: Minimum inhibitory concentration E.c.^h.
Data set [9] has as its system E. coli CMCC 44103. The data set is described as follows: MIC by broth microdilution. To be noted: Escherichia coli, CMCC44103, 24 h, read-out: Minimum inhibitory concentration E.c.^i.

A word on the solubility: it is how much of the substance goes into solution per volume. A low value points to little dissolved substance. `C=C[C@]1(C)C[C@@H](OC(=O)CSc2nc3cc[n+](Cc4ccc(Br)cc4)cc3s2)[C@]2(C)[C@H](C)CC[C@]3(CCC(=O)[C@H]32)[C@@H](C)[C@@H]1O` [Compound I-1, 5-(4-bromobenzyl)-2-((2-(((3aR,4R,5R,7S,8S,9R,9aS,12R)-8-hydroxy-4,7,9,12-tetramethyl-3-oxo-7-vinyldecahydro-4,9a-propancyclopenta[8]cyclo-5-yl)oxy)-2-oxoethyl)thio)thiazolo[5,4-c]pyridin-5-ium] yielded a solubility in [1] of 450 µM. Also, the MIC came out at 32 µg/mL in data set [2]; 16 µg/mL in [3]; 16 µg/mL in data set [4]; 8 µg/mL in data set [5]; 16 µg/mL in data set [6]; 32 µg/mL in data set [7]. Also, the MIC in data set [8] and in data set [9] was 32 µg/mL each time.

In data set [1], `C=C[C@]1(C)C[C@@H](OC(=O)CSc2nc3cc[n+](Cc4ccc(C(F)(F)F)cc4)cc3s2)[C@]2(C)[C@H](C)CC[C@]3(CCC(=O)[C@H]32)[C@@H](C)[C@@H]1O` [Compound I-2, 5-(4-trifluoromethyl)-2-((2-(((3aR,4R,5R,7S,8S,9R,9aS,12R)-8-hydroxy-4,7,9,12-tetramethyl-3-oxo-7-vinyldecahydro-4,9a-propancyclopenta[8]cyclo-5-yl)oxy)-2-oxoethyl)thio)thiazolo[5,4-c]pyridin-5-ium] displayed a solubility of 327 µM. In addition, the MIC in [2] is 32 µg/mL; in data set [3], 16 µg/mL; in data set [4] it was 8 µg/mL; in data set [5], 16 µg/mL; in [6], 32 µg/mL; in data set [7], 8 µg/mL. The MIC was found to be 8 µg/mL in data set [8] and 16 µg/mL in data set [9].

`C=C[C@]1(C)C[C@@H](OC(=O)CSc2nc3cc[n+](Cc4ccc(F)cc4)cc3s2)[C@]2(C)[C@H](C)CC[C@]3(CCC(=O)[C@H]32)[C@@H](C)[C@@H]1O` [Compound I-3, 5-(4-fluorobenzyl)-2-((2-(((3aR,4R,5R,7S,8S,9R,9aS,12R)-8-hydroxy-4,7,9,12-tetramethyl-3-oxo-7-vinyldecahydro-4,9a-propancyclopenta[8]cyclo-5-yl)oxy)-2-oxoethyl)thio)thiazolo[5,4-c]pyridin-5-ium] gave a solubility in [1] of 561 µM. Also, the MIC in data set [2] worked out at 32 µg/mL; in data set [3], 16 µg/mL; in data set [4], 16 µg/mL; in [5], 8 µg/mL; in [6], 32 µg/mL; in data set [7] it was 32 µg/mL. Moreover, the MIC is 8 µg/mL in data set [8] and 16 µg/mL in data set [9].

`C=C[C@]1(C)C[C@@H](OC(=O)CSc2nc3cc[n+](Cc4ccc(OC)cc4)cc3s2)[C@]2(C)[C@H](C)CC[C@]3(CCC(=O)[C@H]32)[C@@H](C)[C@@H]1O` [Compound I-4, 5-(4-methoxybenzyl)-2-((2-(((3aR,4R,5R,7S,8S,9R,9aS,12R)-8-hydroxy-4,7,9,12-tetramethyl-3-oxo-7-vinyldecahydro-4,9a-propancyclopenta[8]cyclo-5-yl)oxy)-2-oxoethyl)thio)thiazolo[5,4-c]pyridin-5-ium]: the solubility in [1] worked out at 247 µM. Also, the MIC in data set [2] was determined as 32 µg/mL; in data set [3], 8 µg/mL; in data set [4] it was 16 µg/mL; in [5] it was 64 µg/mL; in data set [6], 32 µg/mL; in data set [7], 32 µg/mL. The MIC in data set [8] was 16 µg/mL; in data set [9], 8 µg/mL.

In the case of `C=C[C@]1(C)C[C@@H](OC(=O)CSc2nc3cc[n+](Cc4ccc(Cl)cc4)cc3s2)[C@]2(C)[C@H](C)CC[C@]3(CCC(=O)[C@H]32)[C@@H](C)[C@@H]1O` [Compound I-5, 5-(4-chlorobenzyl)-2-((2-(((3aR,4R,5R,7S,8S,9R,9aS,12R)-8-hydroxy-4,7,9,12-tetramethyl-3-oxo-7-vinyldecahydro-4,9a-propancyclopenta[8]cyclo-5-yl)oxy)-2-oxoethyl)thio)thiazolo[5,4-c]pyridin-5-ium], in data set [1], the solubility is 623 µM. Besides, the MIC in data set [2] worked out at 32 µg/mL; in data set [3] it was 32 µg/mL; in [4] it was 8 µg/mL; in data set [5], 32 µg/mL; in data set [6], 32 µg/mL; in data set [7], 16 µg/mL. Besides, the MIC in data set [8] and in data set [9] was 32 µg/mL in each case.

Regarding `C=C[C@]1(C)C[C@@H](OC(=O)CSc2nc3cc[n+](Cc4cc(F)c(F)cc4F)cc3s2)[C@]2(C)[C@H](C)CC[C@]3(CCC(=O)[C@H]32)[C@@H](C)[C@@H]1O` [Compound I-7, 5-(2,4,5-trifluorobenzyl)-2-((2-(((3aR,4R,5R,7S,8S,9R,9aS,12R)-8-hydroxy-4,7,9,12-tetramethyl-3-oxo-7-vinyldecahydro-4,9a-propancyclopenta[8]cyclo-5-yl)oxy)-2-oxoethyl)thio)thiazolo[5,4-c]pyridin-5-ium], in data set [1], the solubility turned out to be 656 µM. Besides, the MIC is 128 µg/mL in [2]; 64 µg/mL in data set [3]; 64 µg/mL in data set [4]; 64 µg/mL in [5]; 128 µg/mL in [6]; 64 µg/mL in data set [7]. Besides, the MIC amounted to 128 µg/mL in data set [8] and 64 µg/mL in [9].

Turning to `C=C[C@]1(C)C[C@@H](OC(=O)CSc2nc3cc[n+](Cc4ccc(-c5ccccc5)cc4)cc3s2)[C@]2(C)[C@H](C)CC[C@]3(CCC(=O)[C@H]32)[C@@H](C)[C@@H]1O` [Compound I-10, 5-([1,1′-biphenyl]-4-ylmethyl)-2-((2-(((3aR,4R,5R,7S,8S,9R,9aS,12R)-8-hydroxy-4,7,9,12-tetramethyl-3-oxo-7-vinyldecahydro-4,9a-propancyclopenta[8]cyclo-5-yl)oxy)-2-oxoethyl)thio)thiazolo[5,4-c]pyridin-5-ium], in data set [1], the solubility stood at 513 µM. The MIC is 16 µg/mL in [2]; 64 µg/mL in [3]; 8 µg/mL in data set [4]; 32 µg/mL in data set [5]; 8 µg/mL in data set [6]; 16 µg/mL in data set [7]. Moreover, the MIC came out at 16 µg/mL in [8] and 32 µg/mL in data set [9].

Consider `C=C[C@]1(C)C[C@@H](OC(=O)CSc2nc3cc[n+](Cc4ccc(C(C)(C)C)cc4)cc3s2)[C@]2(C)[C@H](C)CC[C@]3(CCC(=O)[C@H]32)[C@@H](C)[C@@H]1O` [Compound I-11, 5-(4-(tert-butyl)benzyl)-2-((2-(((3aR,4R,5R,7S,8S,9R,9aS,12R)-8-hydroxy-4,7,9,12-tetramethyl-3-oxo-7-vinyldecahydro-4,9a-propancyclopenta[8]cyclo-5-yl)oxy)-2-oxoethyl)thio)thiazolo[5,4-c]pyridin-5-ium], for which the MIC was found to be 64 µg/mL in data set [2]; 16 µg/mL in [3]; 32 µg/mL in data set [4]; 32 µg/mL in data set [5]; 8 µg/mL in data set [6]; 32 µg/mL in data set [7]. Also, the MIC in [8] is 32 µg/mL; in data set [9] it was 16 µg/mL.

Take `C=C[C@]1(C)C[C@@H](OC(=O)CSc2nc3cc[n+](Cc4cc(C)cc(C)c4)cc3s2)[C@]2(C)[C@H](C)CC[C@]3(CCC(=O)[C@H]32)[C@@H](C)[C@@H]1O` [Compound I-12, 5-(3,5-dimethylbenzyl)-2-((2-(((3aR,4R,5R,7S,8S,9R,9aS,12R)-8-hydroxy-4,7,9,12-tetramethyl-3-oxo-7-vinyldecahydro-4,9a-propancyclopenta[8]cyclo-5-yl)oxy)-2-oxoethyl)thio)thiazolo[5,4-c]pyridin-5-ium]: in [1], the solubility worked out at 549 µM. For the same compound, the MIC in data set [2] came out at 64 µg/mL; in [3], 64 µg/mL; in data set [4], 16 µg/mL; in [5], 32 µg/mL; in [6], 32 µg/mL; in [7], 64 µg/mL. Also, the values for the MIC in data set [8] and in data set [9] were 64 µg/mL and 32 µg/mL, respectively.

In the case of `C=C[C@]1(C)C[C@@H](OC(=O)CSc2nc3cc[n+](Cc4cc(F)ccc4C#N)cc3s2)[C@]2(C)[C@H](C)CC[C@]3(CCC(=O)[C@H]32)[C@@H](C)[C@@H]1O` [Compound I-13, 5-(2-cyano-5-fluorobenzyl)-2-((2-(((3aR,4R,5R,7S,8S,9R,9aS,12R)-8-hydroxy-4,7,9,12-tetramethyl-3-oxo-7-vinyldecahydro-4,9a-propancyclopenta[8]cyclo-5-yl)oxy)-2-oxoethyl)thio)thiazolo[5,4-c]pyridin-5-ium], the solubility in data set [1] turned out to be 231 µM. Also, the MIC in data set [2] was 32 µg/mL; in data set [3], 64 µg/mL; in data set [4], 64 µg/mL; in data set [5], 32 µg/mL; in data set [6], 64 µg/mL; in [7], 64 µg/mL. The values for the MIC in data set [8] and in data set [9] were 64 µg/mL and 32 µg/mL, respectively.

`C=C[C@]1(C)C[C@@H](OC(=O)CSCCN(CC)CC)[C@]2(C)[C@H](C)CC[C@]3(CCC(=O)[C@H]32)[C@@H](C)[C@@H]1O` [Tiamulin, tiamulin, reference compound] gave a solubility in data set [1] of 259 µM (≈ 128 µg/mL).
